Data from publication PMC10139140, “Synthesis of Novel 2-(Cyclopentylamino)thiazol-4(5H)-one Derivatives with Potential Anticancer, Antioxidant, and 11β-HSD Inhibitory Activities” (International Journal of Molecular Sciences, 2023).

Biological target: T1, 11β-HSD1 (Homo sapiens, UniProt P28845)
T1 construct: Human liver microsomes were used as a source of 11β-HSD1 enzyme; tissue XenoTech Lot No. 1410013; host or cells: pooled human liver microsomes, mixed gender
Experiment: Inhibition of 11β-HSD1 (cortisone to cortisol, human liver microsomes, cortisol ELISA)
Format: biochemical
Details: 10 µM, 2.5 h, 37 °C
Procedure: The resulting solution with a final volume of 100 µL was incubated for 2.5 h at 37 °C. To stop the reaction, 10 µL of a 100 µM solution of 18β-glycyrrhetinic acid in PBS was added. The level of cortisol obtained in the reaction was measured by commercially available ELISA kit.
As a control, analogous tests without the addition of inhibitors were used. Half the inhibitory concentration (causing 50% reduction of cortisol or cortisone) was read from the chart.

T1 sequence (P28845 whole entry): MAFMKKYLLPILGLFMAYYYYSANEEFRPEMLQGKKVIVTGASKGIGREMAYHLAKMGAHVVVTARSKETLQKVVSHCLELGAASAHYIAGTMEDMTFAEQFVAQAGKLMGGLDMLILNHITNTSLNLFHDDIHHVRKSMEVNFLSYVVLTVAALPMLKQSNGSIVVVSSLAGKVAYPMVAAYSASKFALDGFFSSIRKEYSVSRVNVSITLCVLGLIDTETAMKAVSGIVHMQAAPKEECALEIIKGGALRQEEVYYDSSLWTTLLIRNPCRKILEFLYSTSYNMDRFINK

- inhibition at 10 µM: 90.4 ± 1.86%
SMILES: CC1(C)[C@@H](OC(=O)CCC(=O)O)CC[C@]2(C)[C@H]3C(=O)C=C4[C@@H]5C[C@@](C)(C(=O)O)CC[C@]5(C)CC[C@@]4(C)[C@]3(C)CC[C@@H]12 [carbenoxolone, reference compound]
